Assay results as given in patent US10508088B2, “Methods using HDAC11 inhibitors” (FORMA Therapeutics, Inc., priority 2016, dated 2019).

Assays:
[1] = system: myeloid cells from MPN patients; test: Colony formation assay from MPN patient samples; format: cell-based, human; conditions: MPN patient samples (ET; PV Ruxolitinib resistant), scored 12 to 14 days
Protocol: (§1) To determine the effects of selective HDAC11 inhibition on MPN patient samples, the effects of HDAC11 inhibitors were evaluated in a colony formation assay with erythroid or myeloid cells from MPN patients. Peripheral blood was obtained from MPN patients consented through the Moffitt Cancer Center Total Cancer Care protocol (MCC 14690). Blood was treated with HetaSep™ (STEMCELL Technologies, Inc.) to remove the majority of red blood cells. Peripheral blood mononuclear cells (PBMCs) were isolated by ficoll separation. PBMCs (1-4×105) were then plated in 1 mL of methylcellulose medium containing rhSCF, rhIL-3, and granulocyte-macrophage colony-stimulating factor (rhGM-CSF) (MethoCult™ #H4534; STEMCELL Technologies, Inc.). All drug treated samples contained 0.1% DMSO as the final concentration. Cells were incubated at 37° C. and 5% CO2 in a humidified incubator. Colonies were scored 12 to 14 days after plating.

[2] = system: erythroid cells from MPN patients; test: Colony formation assay from MPN patient samples; format: cell-based, human; conditions: MPN patient samples (ET; PV Ruxolitinib resistant), scored 12 to 14 days
Protocol: as §1

[3] = system: STAT5 phosphorylation in HEL 92.1.7 cells; test: STAT3 and STAT5 phosphorylation western blot assay; format: cell-based; conditions: HEL 92.1.7, western blot
Protocol: (§2) The effects of selective HDAC11 inhibition on STAT3 and […] phosphorylation in HEL 92.1.7 cells were determined by western blot. Cells were treated with HDAC11 inhibitors and lysed in RIPA buffer (Sigma-Aldrich, St. Louis, Mo.) supplemented with protease inhibitors (Roche, Basel, Switzerland) and phosphatase inhibitors (Sigma P5726). Protein concentrations were determined with Pierce BCA protein assay kit (Thermo Fisher Scientific, Waltham, Mass.). Proteins were separated on a 4-12% Bis-Tris gradient electrophoresis gel (Life Technologies, Carlsbad, Calif.) and transferred onto a nitrocellulose membrane. The membrane was then blocked in either 5% nonfat dry milk or 5% BSA followed by incubation with primary antibodies at 4° C. overnight. Antibodies for p-STAT5 (Abcam 32364), STAT5 (Cell Signaling 9358), p-STAT3 (Cell Signaling 9145) and STAT3 (Cell Signaling 9139) were used. β-actin was used as loading control.

[4] = system: STAT3 phosphorylation in HEL 92.1.7 cells; test: STAT3 and STAT5 phosphorylation western blot assay; format: cell-based; conditions: HEL 92.1.7, western blot
Protocol: as §2

[5] = system: A549 cells; test: Cell migration scratch assay; format: cell-based
Protocol: The effects of HDAC11 inhibition on cell migration were determined using a scratch assay. A549 cells (120,000-150,000 cells/2 ml/well) were grown in 6-well tissue culture plates (BD Biosciences). A scratch was made using a sterile 2 μl pipette tip in each well. The 10% FBS containing medium was added to the wells after a wash with DPBS. To assess the effect of the HDAC11 inhibitors on cell migration, the inhibitors were added in the medium at appropriate concentrations. The cells were further incubated at 37° C. The images were taken on Day 0 and after every 24 hours using EVOS FL microscope system and EVOS software (Life Technologies Inc) and the cell migration was compared to the Day 0 of treatment.

[6] = target: Full length human recombinant HDAC11 (Homo sapiens (Human), UniProt Q96DB2); test: Enzymatic HDAC11 assay, electrophoretic mobility shift; format: biochemical; conditions: substrate FAM-RHKK(tri-fluor-Ac)-NH2, read-out: HDAC11 IC50 Range
How it was run: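 Baculovirus-expressed enzyme (10 nM) with 2 μM FAM-RHKK(tri-fluor-Ac)-NH2 in 100 mM HEPES pH 7.5, 25 mM KCl, 0.1% BSA, 0.01% Triton X-100, 1% DMSO at 25 °C. Substrate and product separated by microfluidic electrophoresis; inhibition from product/(substrate+product) ratio. IC50 by 4-parameter fit over 12 concentrations.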

Sequence of Full length human recombinant HDAC11 (Q96DB2 whole entry): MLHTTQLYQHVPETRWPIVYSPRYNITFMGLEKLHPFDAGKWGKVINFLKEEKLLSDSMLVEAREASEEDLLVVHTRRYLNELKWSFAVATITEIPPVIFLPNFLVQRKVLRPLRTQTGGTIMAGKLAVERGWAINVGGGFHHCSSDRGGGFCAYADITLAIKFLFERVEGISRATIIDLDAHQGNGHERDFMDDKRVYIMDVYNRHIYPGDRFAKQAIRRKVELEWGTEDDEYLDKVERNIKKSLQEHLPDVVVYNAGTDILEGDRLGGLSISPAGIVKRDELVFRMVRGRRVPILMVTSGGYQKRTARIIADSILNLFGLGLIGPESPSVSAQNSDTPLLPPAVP

SMILES	growth of colonies from myeloid cells [1]	growth of colonies from erythroid cells [2]	STAT5 phosphorylation [3]	STAT3 phosphorylation [4]	cell migration [5]	IC50 [6] [nM]
O=C(NO)c1cccc(Nc2nc3cc(Cl)c(Cl)cc3o2)c1 [HDTK010, 3-((5,6-dichlorobenzo[d]oxazol-2-yl)amino)-N-hydroxybenzamide]	reduced the growth of colonies	reduced the growth of colonies	inhibited	inhibited		
O=C(NO)c1cccc2c1C[C@]1(CCN(Cc3ccc(Cl)c(C(F)(F)F)c3)C1=O)C2 [HDTK054, (S)-1′-(4-chloro-3-(trifluoromethyl)benzyl)-N-hydroxy-2′-oxo-1,3-dihydrospiro[indene-2,3′-pyrrolidine]-4-carboxamide]					impaired	< 500
